Experimental findings from PubChem BioAssay (NCI) are described below.

Common to all, as to test: inhibition of tumour cell growth, NCI panel, 48 h
The subject of test [1] is KM20L2 colon.
Test [2] deals with XF 498 CNS.
Test [3] deals with DMS 114 small cell lung.
Test [4] relates to MDA-MB-231 breast.
For test [5], the system named is MDA-MB-435.
In test [6] the test system is HS 578T breast.
Test [7] has as its system NCI/ADR-RES ovarian.
The subject of test [8] is SNB-78 CNS.
Test [9] relates to PC-3 prostate.
The test system of test [10] is LXFL 529 NSCLC.

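Following 48 hours of exposure in 96-well plates, responses at five concentrations were used to interpolate endpoints linearly. Here, GI50 denotes the concentration required for 50% inhibition of growth. TGI is the concentration that stops growth completely.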

As for `CCOC(=O)C1(Br)C(c2ccccc2)NC(=O)NC1(C)Br` (stereo not given), the TGI was above 100 µM in test [1]; above 100 µM in test [2]; above 100 µM in test [3]; above 100 µM in test [4]; 57.3 µM in test [5]; above 100 µM in test [6]. Moreover, the TGI in test [7] is 89.8 µM; in test [8], above 100 µM; in test [9], above 100 µM; in test [10] it was above 100 µM. Besides, the GI50 in test [4] is 27.8 µM; in [5], 20.5 µM; in test [6], 37.4 µM; in test [7], 28.1 µM; in [9], 22.3 µM.
Take `C=C(CCCCCCCCC)CC(=O)SCCNC(=O)CCNC(=O)C(O)C(C)(C)COP(=O)(O)OP(=O)(O)OCC1OC(n2cnc3c(N)ncnc32)C(O)C1OP(=O)(O)O` (stereo not given): the TGI is above 100 µM in [1]; above 100 µM in [2]; above 100 µM in [3]; above 100 µM in test [4]; 67.7 µM in [5]; above 100 µM in test [6]. For the same compound, the TGI in [7] is above 100 µM; in test [8], 65 µM; in test [9], above 100 µM; in test [10], above 100 µM.
